pIC50: −log10 of the molar value.
Assays:
HL-60 = experiment: Cytotoxicity against human HL60 cells; type: cell-based
[1] = biological target: T1, Tyrosine-protein phosphatase non-receptor type 1 (Homo sapiens, UniProt P18031); experiment: Inhibition of human recombinant PTP1B-mediated pNPP hydrolysis
T1 sequence (P18031 whole entry): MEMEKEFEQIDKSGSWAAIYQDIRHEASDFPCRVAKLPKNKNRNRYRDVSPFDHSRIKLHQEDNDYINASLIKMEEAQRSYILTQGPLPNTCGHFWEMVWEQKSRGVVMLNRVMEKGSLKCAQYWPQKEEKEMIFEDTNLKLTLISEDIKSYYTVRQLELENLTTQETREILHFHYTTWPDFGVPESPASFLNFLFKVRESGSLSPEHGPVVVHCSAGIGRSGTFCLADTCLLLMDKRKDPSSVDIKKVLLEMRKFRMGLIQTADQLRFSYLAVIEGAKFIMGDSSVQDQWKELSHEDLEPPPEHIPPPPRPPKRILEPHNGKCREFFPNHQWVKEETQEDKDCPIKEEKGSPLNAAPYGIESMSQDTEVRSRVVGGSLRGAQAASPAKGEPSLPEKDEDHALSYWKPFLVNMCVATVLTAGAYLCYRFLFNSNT

A549 = experiment: Cytotoxicity against human A549 cells; type: cell-based

Structure (SMILES)	pIC50 [1]	Activity (HL-60)	Activity (A549)
COC(=O)/C1=C\C=C(\C(C)C)CC/C(C)=C/CC/C(C)=C/CC1	5.23	Non-toxic	Non-toxic
COC(=O)/C1=C\CC[C@]2(C)O[C@H]2CC/C(C(=O)OC)=C/C=C(/C(C)C)CC1	≤ 4.27	Non-toxic	Non-toxic
COC(=O)/C1=C\C=C(\C(C)C)CC/C(C(=O)O)=C/CC[C@]2(C)O[C@H]2CC1	≤ 4.26	Non-toxic	Non-toxic
CC(=O)O[C@@H]1C/C(C)=C/C/C=C(/C)CC(=O)CC2=C[C@@H](OC2=O)[C@@H]1C(C)C	≤ 4.27	Non-toxic	Non-toxic
C/C1=C/C=C(/C(C)C)CCC2=CCC[C@](C)(OC2=O)C(=O)CC1	4.81	Non-toxic	Non-toxic
COC(=O)/C1=C/C=C(/C(C)C)CCC2=CCC[C@](C)(OC2=O)C(=O)CC1 [SARCRASSIN E]	5.20	Non-toxic	Non-toxic

Now from value to compound, other results behind:

pIC50 [1]	Structure (SMILES)	Activity (HL-60)	Activity (A549)
≤ 4.30	COC(=O)/C1=C\CC[C@](C)(O)[C@H](O)CC/C(C(=O)OC)=C\C=C(/C(C)C)CC1	Non-toxic	Non-toxic
4.58	C/C1=C\C=C(\C(C)C)CC/C(C)=C/CC/C(C)=C/CC1	Non-toxic	Non-toxic
≤ 4.27	CC(=O)O[C@@H]1C/C(C)=C/CCC(C)CC(=O)CC2=C[C@@H](OC2=O)[C@@H]1C(C)C (stereo partly drawn)	Non-toxic	Non-toxic
≤ 4.13	CC(C)=C1C/C=C(\C)CC/C=C(\C)CC/C=C(\C)CC1	Non-toxic	Non-toxic
4.57	COC(=O)/C1=C\C=C(\C(C)C)CCC2=CCC[C@](C)(OC2=O)C(=O)CC1 [KETOEMBLIDE]	Non-toxic	Non-toxic

From ChEMBL document CHEMBL2413037, “Cembrane diterpenoids from the soft coral Sarcophyton trocheliophorum Marenzeller as a new class of PTP1B inhibitors” (Bioorg Med Chem, 2013)
